Source: paper PMC7869707 (European Journal of Medicinal Chemistry, 2021)

Tested on: wild-type SARS-CoV-2 (wuhan-HU-1 variant)
Type: cell-based

C[C@@H]1O[C@@H](O[C@H]2[C@H](O[C@H]3CC[C@]4(C)[C@H]5CC=C6[C@@H]7CC(C)(C)CC[C@]7(C(=O)NCc7ccccc7)CC[C@@]6(C)[C@]5(C)CC[C@H]4C3(C)C)O[C@H](CO)[C@@H](O[C@@H]3O[C@@H](C)[C@H](O)[C@@H](O)[C@H]3O)[C@@H]2O)[C@H](O)[C@H](O)[C@H]1O [Compound 12f, N-{3β-O-[2,4-di-O-(a-L-rhamnopyranosyl)-β-D-glucopyranosyl]-olean-12-en-28-oyl}-benzylamine]
Inhibition of SARS-CoV-2 infection by IFA, NP expression: dose-dependent manner
